Assay results from patent publication US20190375723A1, “New Naphtho[2,3-B]Furan Derivatives” (Boston Biomedical, Inc., priority 2016, published 2019).

How the values were obtained:
HCT-116 cells [1] = assay: Inhibition assay of cancer cell sphere-forming ability; format: cell-based; conditions: Homo sapiens, 96 h, ultra-low attachment plate, serum-free DMEM/F12 with B27, EGF, bFGF, insulin, cultured for 4 days, Cell Titer-Glo
Description: HCT-116 cells were obtained from American Type Culture Collection (ATCC). HCT-116 cells were cultured at 37° C. in the presence of 5% CO2 using McCoy's 5a medium containing 10% fetal bovine serum (FBS) and 1% penicillin/streptomycin. The HCT-116 cells were seeded onto 384 Well Black Clear Bottom Ultra-Low Attachment Microplate (Corning Cat. No. 3827) using DMEM/F12 medium containing 2% B27 supplement (GIBCO), 20 ng/mL epidermal growth factor (EGF) (peprotech), 10 ng/mL basic fibroblast growth factor (bFGF) (peprotech), 5 μg/mL insulin (Sigma), and 1% penicillin/streptomycin to be 350-800 cells/well. A test substance was added so that the final concentration of DMSO is 0.1%, and then cultured for 4 days. The number of living cells was then counted using Cell Titer-Glo (registered trademark) Luminescent Cell Viability Assay (Promega) to calculate the concentration for 50% inhibition of cell proliferation of respective test substances (Sphere IC50 value; μM) (this test is a method which evaluates the functions of cancer stem cells (see Non Patent Literature 4)).

HCT-116 cells [2] = assay: Proliferation inhibition assay of cancer cells; format: cell-based; conditions: Homo sapiens, 96 h, adherent culture with 10% FBS, cultured for 4 days, Cell Titer-Glo, read-out: IC50 (μM) HCT (Bulk IC50 value)
Description: HCT-116 cells were obtained from American Type Culture Collection (ATCC). HCT-116 cells were cultured at 37° C. in the presence of 5% CO2 using McCoy's 5a medium containing 10% fetal bovine serum (FBS) and 1% penicillin/streptomycin. After cells were seeded at 300-600 cells/well onto μClear-plate black 384 well (Greiner bio-one Cat. No. 781091), a test substance was added such that the final concentration of DMSO is 0.1%, and cultured for 4 days. The number of living cells was then counted using Cell Titer-Glo (registered trademark) Luminescent Cell Viability Assay (Promega) to calculate a concentration for 50% inhibition of cell proliferation of respective test substances (Bulk IC50 value; μM).

IC50 (HCT-116 cells [1])	IC50 (HCT-116 cells [2])	Structure (SMILES)
0.24 µM	0.63 µM	CC(=O)c1cc2c(o1)C(=O)c1c(Cl)ccc(O)c1C2=O [Example 1, 2-Acetyl-8-chloro-5-hydroxynaphtho[2,3-b]furan-4,9-dione]
5.12 µM	0.63 µM	CC(=O)c1cc2c(o1)C(=O)c1ccc(Br)c(O)c1C2=O [Example 2, 2-Acetyl-6-bromo-5-hydroxynaphtho[2,3-b]furan-4,9-dione]
6.39 µM	4.93 µM	CC(=O)c1cc2c(o1)C(=O)c1c(ccc(Br)c1O)C2=O [Example 3, 2-Acetyl-7-bromo-8-hydroxynaphtho[2,3-b]furan-4,9-dione]
